# Like-named read-outs stand apart in the source and are kept apart here.
# Experiments:
# [1] = molecular target: T1, wild type HCV NS3/4A 1b protease enzyme (Hepatitis C virus genotype 1b, UniProt P26663); assay: biochemical; type: biochemical
# T1 construct: 10× stocks of NS3/4A protease enzyme from Bioenza (Mountain View, Calif.); purchased Bioenza (Mountain View, Calif.)
# Procedure: (§1) HCV Protease FRET Assay for Wild Type and Mutated NS3/4A 1b Enzymes (IC50)
# (§2) Protease reactions were started with the addition of 45 μL of the FRET substrate and monitored for 120 minutes at λex487/λem514 through Quad^4 monochromoters in a Synergy^4 plate reader from BioTek (Winooski, Vt.). At the conclusion of each assay, progress curves from each well were examined for linear reaction kinetics and fit statistics (R^2, absolute sum of squares).
# (§3) The compound numbers correspond to the compound numbers in Table 3.
# [2] = molecular target: T2, D168A mutant of the HCV NS3/4A 1b protease enzyme (Hepatitis C virus genotype 1b, UniProt P26663, D1194A); assay: HCV Protease FRET Assay (IC50), D168A mutant; type: biochemical
# T2 construct: 10× stocks of NS3/4A protease enzyme from Bioenza (Mountain View, Calif.); purchased Bioenza (Mountain View, Calif.)
# Procedure: as §1, §2, §3
# [3] = read-out: Inhibition, WT, WT enzyme, FRET assay
# [4] = read-out: Inhibition, HCV D168A, D168A enzyme, FRET assay
Compound,"IC50 [1, 3]","IC50 [2, 4]",IC50 [1],IC50 [2]
"C=C[C@@H]1C[C@]1(NC(=O)[C@@H]1C[C@@H](Oc2cc(-c3ccccc3)nc3cc(OC)ccc23)CN1C(=O)[C@H](CCNC(=O)C(C)Cl)NC(=O)OC(C)(C)C)C(=O)NS(=O)(=O)c1ccccc1 (stereo partly drawn) [Compound I-1, (2S)-2-[[(1,1-dimethylethoxy)carbonyl]amino]-4-(R,S-chloropropionyl)amino-butanoyl-(4R)-4-[(7-methoxy-2-phenyl-4-quinolinyl)oxy]-L-prolyl-1-amino-2-ethenyl-N-(phenylsulfonyl)-(1R,2S)-cyclopropanecarboxamide]",< 10 nM,1000 to 10000 nM,–,–
"C=C[C@@H]1C[C@]1(NC(=O)[C@@H]1C[C@@H](Oc2cc(-c3ccccc3)nc3cc(OC)ccc23)CN1C(=O)[C@H](CNC(=O)[C@H](C)Cl)NC(=O)OC(C)(C)C)C(=O)NS(=O)(=O)c1ccccc1 [Compound I-21, tert-butyl(S)-3-((S)-2-chloropropanamido)-1-((2S,4R)-4-(7-methoxy-2-phenylquinolin-4-yloxy)-2-((1R,2S)-1-(phenylsulfonylcarbamoyl)-2-vinylcyclopropylcarbamoyl)pyrrolidin-1-yl)-1-oxopropan-2-ylcarbamate]",< 10 nM,100 to 1000 nM,–,–
"C=CC(=O)N(C)CC(=O)N1C[C@H](Oc2cc(-c3ccccc3)nc3cc(OC)ccc23)C[C@H]1C(=O)N[C@]1(C(=O)NS(=O)(=O)C2CC2)C[C@H]1C=C [Compound I-37, (2S,4R)—N-((1R,2S)-1-(cyclopropylsulfonylcarbamoyl)-2-vinylcyclopropyl)-4-(7-methoxy-2-phenylquinolin-4-yloxy)-1-(2-(N-methylacrylamido)acetyl)pyrrolidine-2-carboxamide]",10 to 100 nM,1000 to 10000 nM,–,–
"C=CC(=O)NC[C@H](NC(=O)CCCCCNC(=O)CCCC[C@@H]1SC[C@@H]2NC(=O)N[C@@H]21)C(=O)N1C[C@H](Oc2cc(-c3ccccc3)nc3cc(OC)ccc23)C[C@H]1C(=O)N[C@]1(C(=O)NS(=O)(=O)c2ccccc2)C[C@H]1C=C [Compound I-31, (2S,4R)-1-((S)-3-acrylamido-2-(6-(5-((3aS,4S,6aR)-2-oxohexahydro-1H-thieno[3,4-d]imidazol-4-yl)pentanamido)hexanamido)propanoyl)-4-(7-methoxy-2-phenylquinolin-4-yloxy)-N-((1R,2S)-1-(phenylsulfonylcarbamoyl)-2-vinylcyclopropyl)pyrrolidine-2-carboxamide]",< 10 nM,10 to 100 nM,–,–
"C=CC(=O)N1C[C@H](Oc2cc(-c3ccccc3)nc3cc(OC)ccc23)C[C@H]1C(=O)N[C@]1(C(=O)NS(=O)(=O)C2CC2)C[C@H]1C=C [Compound I-49, (2S,4R)-1-acryloyl-N-((1R,2S)-1-(cyclopropylsulfonylcarbamoyl)-2-vinylcyclopropyl)-4-(7-methoxy-2-phenylquinolin-4-yloxy)pyrrolidine-2-carboxamide]",10 to 100 nM,100 to 1000 nM,–,–
"C=C[C@@H]1C[C@]1(NC(=O)[C@@H]1C[C@@H](Oc2cc(-c3ccccc3)nc3cc(OC)ccc23)CN1C(=O)CNC(=O)C(=C)C)C(=O)NS(=O)(=O)c1ccccc1 [Compound I-44, (2S,4R)-1-(2-methacrylamidoacetyl)-4-(7-methoxy-2-phenylquinolin-4-yloxy)-N-((1R,2S)-1-(phenylsulfonylcarbamoyl)-2-vinylcyclopropyl)pyrrolidine-2-carboxamide]",10 to 100 nM,1000 to 10000 nM,–,–
"C=C[C@@H]1C[C@]1(NC(=O)[C@@H]1C[C@@H](Oc2cc(-c3ccccc3)nc3cc(OC)ccc23)CN1C(=O)[C@H](CNC(=O)[C@@H](C)Cl)NC(=O)OC(C)(C)C)C(=O)NS(=O)(=O)c1ccccc1 [Compound I-13, N-[(1,1-dimethylethoxy)carbonyl]-3-[R-(chloropropionyl)amino]-L-alanyl-(4R)-4-[(7-methoxy-2-phenyl-4-quinolinyl)oxy]-L-prolyl-1-amino-2-ethenyl-N-(phenylsulfonyl)-(1R,2S)-cyclopropanecarboxamide]",< 10 nM,100 to 1000 nM,–,–
"C=C[C@@H]1C[C@]1(NC(=O)[C@@H]1C[C@@H](Oc2cc(-c3ccccc3)nc3cc(OC)ccc23)CN1C(=O)CNC(=O)[C@@H](Cl)c1ccccc1)C(=O)NS(=O)(=O)c1ccccc1 (stereo in doubt) [Compound I-45, (2S,4R)-1-(2-((S,R)-2-chloro-2-phenylacetamido)acetyl)-4-(7-methoxy-2-phenylquinolin-4-yloxy)-N-((1R,2S)-1-(phenylsulfonylcarbamoyl)-2-vinylcyclopropyl)pyrrolidine-2-carboxamide]",100 to 1000 nM,1000 to 10000 nM,–,–
"C=C[C@@H]1C[C@]1(NC(=O)[C@@H]1C[C@@H](Oc2cc(-c3ccccc3)nc3cc(OC)ccc23)CN1C(=O)C1(NC(=O)OC(C)(C)C)CCNCC1)C(=O)NS(=O)(=O)c1ccccc1 [Compound I-24, tert-butyl-4-((2S,4R)-4-(7-methoxy-2-phenylquinolin-4-yloxy)-2-((1R,2S)-1-(phenylsulfonylcarbamoyl)-2-vinylcyclopropylcarbamoyl)pyrrolidine-1-carbonyl)piperidin-4-ylcarbamate]",100 to 1000 nM,1000 to 10000 nM,–,–
"C=C[C@@H]1C[C@]1(NC(=O)[C@@H]1C[C@@H](Oc2cc(-c3ccccc3)nc3cc(OC)ccc23)CN1C(=O)CNC(=O)OC(C)(C)C)C(=O)NS(=O)(=O)C1CC1 [Compound I-38, tert-butyl-2-((2S,4R)-2-((1R,2S)-1-(cyclopropylsulfonylcarbamoyl)-2-vinylcyclopropylcarbamoyl)-4-(7-methoxy-2-phenylquinolin-4-yloxy)pyrrolidin-1-yl)-2-oxoethylcarbamate]",< 10 nM,100 to 1000 nM,–,–
"C=C[C@@H]1C[C@]1(NC(=O)[C@@H]1C[C@@H](Oc2cc(-c3ccccc3)nc3cc(OC)ccc23)CN1C(=O)[C@H](CC1CO1)NC(=O)OC(C)(C)C)C(=O)NS(=O)(=O)c1ccccc1 (stereo partly drawn) [Compound I-6, (2S)-2-[[(1,1-dimethylethoxy)carbonyl]amino]-3-oxiranepropanoyl-(4R)-4-[(7-methoxy-2-phenyl-4-quinolinyl)oxy]-L-prolyl-1-amino-2-ethenyl-N-(phenylsulfonyl)-(1R,2S)-cyclopropanecarboxamide]",< 10 nM,100 to 1000 nM,–,–
"C=C[C@@H]1C[C@]1(NC(=O)[C@@H]1C[C@@H](Oc2cc(-c3ccccc3)nc3cc(OC)ccc23)CN1C(=O)[C@H](CNC(=O)C1(C#N)CC1)NC(=O)OC(C)(C)C)C(=O)NS(=O)(=O)c1ccccc1 [Compound I-11, N-[(1,1-dimethylethoxy)carbonyl]-3-[(1-cyano-cyclopropylcarboxyl)amino]-L-alanyl-(4R)-4-[(7-methoxy-2-phenyl-4-quinolinyl)oxy]-L-prolyl-1-amino-2-ethenyl-N-(phenylsulfonyl)-(1R,2S)-cyclopropanecarboxamide]",< 10 nM,100 to 1000 nM,–,–
"C=C[C@@H]1C[C@]1(NC(=O)[C@@H]1C[C@@H](Oc2cc(-c3ccccc3)nc3cc(OC)ccc23)CN1C(=O)CNC(=O)CC)C(=O)NS(=O)(=O)c1ccccc1 [I^R-27, (2S,4R)-4-(7-methoxy-2-phenylquinolin-4-yloxy)-N-((1R,2S)-1-(phenylsulfonylcarbamoyl)-2-vinylcyclopropyl)-1-(2-propionamidoacetyl)pyrrolidine-2-carboxamide]",–,–,100 to 1000 nM,1000 to 10000 nM
"C=CC(=O)N[C@@H](C)C(=O)N1C[C@H](Oc2cc(-c3ccccc3)nc3cc(OC)ccc23)C[C@H]1C(=O)N[C@]1(C(=O)NS(=O)(=O)c2ccccc2)C[C@H]1C=C [Compound I-34, (2S,4R)-1-((S)-2-acrylamidopropanoyl)-4-(7-methoxy-2-phenylquinolin-4-yloxy)-N-((1R,2S)-1-(phenylsulfonylcarbamoyl)-2-vinylcyclopropyl)pyrrolidine-2-carboxamide]",10 to 100 nM,1000 to 10000 nM,–,–
"C=C[C@@H]1C[C@]1(NC(=O)[C@@H]1C[C@@H](Oc2cc(-c3ccccc3)nc3cc(OC)ccc23)CN1C(=O)CNC(=O)C#CC)C(=O)NS(=O)(=O)c1ccccc1 [Compound I-43, (2S,4R)-1-(2-but-2-ynamidoacetyl)-4-(7-methoxy-2-phenylquinolin-4-yloxy)-N-((1R,2S)-1-(phenylsulfonylcarbamoyl)-2-vinylcyclopropyl)pyrrolidine-2-carboxamide]",100 to 1000 nM,1000 to 10000 nM,–,–
C=CC(=O)OC(C)(C)[C@H](NC(=O)OC(C)(C)C)C(=O)N1CC(Oc2cc(-c3ccccc3)nc3cc(OC)ccc23)C[C@H]1C(=O)N[C@]1(C(=O)NS(=O)(=O)C2CC2)C[C@H]1C=C (some centres unmarked) [Compound I-40],10 to 100 nM,< 10 nM,–,–

# Reference: patent US8309685B2 (Celgene Avilomics Research, Inc., priority 2007, dated 2012)
